Read-outs that look alike come from different tables or passages of the source.
Tests used:
human DGKα = molecular target: T1, human DGKα (Homo sapiens, UniProt P23743); assay: DGKα LIPGLO assay (extruded liposome substrate), in vitro DGK inhibition; type: biochemical; settings: read-out: DGKa LIPGLO IC50
T1 construct: TVMV protease cleavage site (C); Hexa-His (C); made in house; host or cells: Sf9 insect cells (baculovirus, Bac-to-Bac)

Human venous whole blood = assay: Human whole blood IFN-γ assay; type: cell-based;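 also: blood from healthy donors exposed to compound for 1 h before stimulation with anti-CD3 and anti-CD28 at 1 µg/mL each, IFN-γ quantified in supernatant by AlphaLISA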
human DGKζ = molecular target: T2, human DGKζ (Homo sapiens, UniProt Q13574); assay: DGKζ LIPGLO assay (extruded liposome substrate), in vitro DGK inhibition; type: biochemical; settings: read-out: DGKz LIPGLO IC50
T2 construct: TVMV protease cleavage site (C); Hexa-His (C); made in house; host or cells: Sf9 insect cells (baculovirus, Bac-to-Bac)

[1] = human whole blood; normalized to 3 μM reference compound with anti-CD3 plus anti-CD28 as 100% activation; read-out: INFg Whole Blood Normalized Agonist EC50
[2] = Homo sapiens, 24 h, human whole blood; normalized to 3 μM reference compound with anti-CD3 plus anti-CD28 as 100% activation; read-out: INFg Whole Blood Normalized Agonist EC50
[3] = human whole blood, anti-CD3 plus anti-CD28, 24 hours; 3 μM reference compound = 100% activation; read-out: INFg Whole Blood Normalized Agonist EC50
[4] = Homo sapiens, 24 h, human whole blood, anti-CD3 plus anti-CD28, 24 hours; 3 μM reference compound = 100% activation; read-out: INFg Whole Blood Normalized Agonist EC50

T1 sequence (P23743 with tags, fused parts or gaps): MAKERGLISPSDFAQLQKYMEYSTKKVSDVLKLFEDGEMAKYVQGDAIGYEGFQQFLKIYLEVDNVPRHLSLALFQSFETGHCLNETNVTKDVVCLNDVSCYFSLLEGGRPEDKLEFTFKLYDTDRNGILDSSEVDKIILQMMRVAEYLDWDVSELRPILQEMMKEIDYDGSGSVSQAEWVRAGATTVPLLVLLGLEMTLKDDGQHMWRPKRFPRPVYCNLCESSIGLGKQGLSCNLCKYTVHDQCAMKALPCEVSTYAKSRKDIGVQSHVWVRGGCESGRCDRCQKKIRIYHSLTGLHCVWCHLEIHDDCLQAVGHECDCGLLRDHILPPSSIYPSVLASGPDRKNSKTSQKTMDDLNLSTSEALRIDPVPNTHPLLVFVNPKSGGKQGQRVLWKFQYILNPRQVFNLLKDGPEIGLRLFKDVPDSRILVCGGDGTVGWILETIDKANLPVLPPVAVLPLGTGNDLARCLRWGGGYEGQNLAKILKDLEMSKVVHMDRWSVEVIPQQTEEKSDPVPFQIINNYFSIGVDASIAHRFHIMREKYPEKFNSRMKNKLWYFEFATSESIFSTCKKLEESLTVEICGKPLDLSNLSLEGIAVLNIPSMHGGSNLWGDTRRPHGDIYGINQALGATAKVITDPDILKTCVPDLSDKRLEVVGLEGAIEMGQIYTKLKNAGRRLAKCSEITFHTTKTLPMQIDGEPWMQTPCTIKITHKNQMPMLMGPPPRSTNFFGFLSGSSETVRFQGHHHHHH
T2 sequence (Q13574 with tags, fused parts or gaps isoform Q13574-4): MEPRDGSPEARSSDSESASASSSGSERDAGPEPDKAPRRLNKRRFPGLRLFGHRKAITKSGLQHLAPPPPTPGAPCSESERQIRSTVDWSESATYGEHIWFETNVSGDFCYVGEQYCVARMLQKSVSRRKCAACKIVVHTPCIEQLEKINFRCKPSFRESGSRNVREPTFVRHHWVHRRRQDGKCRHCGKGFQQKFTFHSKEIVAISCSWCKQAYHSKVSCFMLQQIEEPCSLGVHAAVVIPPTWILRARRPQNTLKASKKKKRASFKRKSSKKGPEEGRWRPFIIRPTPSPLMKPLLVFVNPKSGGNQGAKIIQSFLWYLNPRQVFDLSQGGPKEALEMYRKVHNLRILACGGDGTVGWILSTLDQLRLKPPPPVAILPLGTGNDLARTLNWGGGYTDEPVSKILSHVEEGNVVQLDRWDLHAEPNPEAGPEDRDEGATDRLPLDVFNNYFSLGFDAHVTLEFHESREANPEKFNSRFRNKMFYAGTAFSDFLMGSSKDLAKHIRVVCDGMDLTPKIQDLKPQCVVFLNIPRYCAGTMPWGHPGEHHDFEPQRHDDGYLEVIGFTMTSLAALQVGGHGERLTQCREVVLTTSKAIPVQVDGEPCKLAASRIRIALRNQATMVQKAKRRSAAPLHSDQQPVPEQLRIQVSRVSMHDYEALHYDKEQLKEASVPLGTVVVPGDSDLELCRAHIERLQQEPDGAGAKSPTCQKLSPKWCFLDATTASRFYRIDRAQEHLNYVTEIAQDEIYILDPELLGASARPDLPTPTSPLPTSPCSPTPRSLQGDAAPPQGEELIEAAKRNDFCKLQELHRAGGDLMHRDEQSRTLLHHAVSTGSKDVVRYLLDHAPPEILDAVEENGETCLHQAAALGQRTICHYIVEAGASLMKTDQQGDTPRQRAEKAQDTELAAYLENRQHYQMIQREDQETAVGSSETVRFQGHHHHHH

Structure (SMILES) | IC50 (human DGKα; liposome (LIPGLO) assay) | IC50 (human DGKζ; liposome (LIPGLO) assay) | EC50 (Human venous whole blood; [1]) | further results
CC[C@@H]1CN(c2cc(=O)n(C)c3ccc(C#N)nc23)[C@@H](C)CN1C(C)c1ccc(F)c(F)c1 (single isomer, unassigned) [Example 1091] | 230 nM | 110 nM | 140 nM | –
CC[C@H]1CN(C(c2ccc(F)cc2)c2ccccn2)[C@H](CC)CN1c1cc(=O)n(C)c2ccc(C#N)nc12 (single isomer, unassigned) [Example 1044] | – | 70 nM | 350 nM | –
C[C@@H]1CN(c2cc(=O)n(C)c3ccc(C#N)nc23)[C@@H](C)CN1C(c1ccccc1)c1ccc(F)cc1 (single isomer, unassigned) [Example 184] | – | – | 570 nM | –
CC(c1ccc(C(F)(F)F)cc1)N1CCN(c2c(C#N)c(=O)n(C)c3ccc(C#N)nc23)C[C@H]1C (single isomer, unassigned) [Example 961] | – | – | – | IC50 (human DGKα; DGKα liposome (LIPGLO) assay): 1500 nM; EC50 (Human venous whole blood; [3]): 20000 nM
C[C@@H]1CN(c2c(C#N)c(=O)n(C)c3ccc(C#N)nc23)CCN1C(c1ccccc1)c1ccc(Cl)cc1 (single isomer, unassigned) [Example 887] | – | – | – | EC50 (Human venous whole blood; read-out: INFg Whole Blood Normalized Agonist EC50; human whole blood, anti-CD3 plus anti-CD28, 24 hours; 3 μM reference compound = 100% activation): 1600 nM
Cc1noc(C(c2ccc(F)cc2)N2C[C@H](C)N(c3cc(=O)n(C)c4ccc(C#N)nc34)C[C@H]2C)n1 (stereo partly drawn) [Example 746] | – | – | – | EC50 (Human venous whole blood; [3]): 960 nM; IC50 (human DGKζ; DGKζ liposome (LIPGLO) assay): 170 nM
CC(c1ccc(C(F)(F)F)cn1)N1C[C@H](C)N(c2cc(=O)n(C)c3ccc(C#N)nc23)C[C@H]1C (single isomer, unassigned) [Example 642] | – | 190 nM | – | EC50 (Human venous whole blood; [2]): 3300 nM
Cc1cccc(C(c2ccc(F)cc2)N2CCN(c3c(C#N)c(=O)n(C)c4ccc(C#N)nc34)C[C@H]2C)c1 (stereo partly drawn) [Example 916] | – | – | – | EC50 (Human venous whole blood; [3]): 1900 nM; IC50 (human DGKζ; DGKζ liposome (LIPGLO) assay): 450 nM
CCC(c1cc(OC(F)(F)F)ccc1F)N1C[C@H](C)N(c2cc(=O)n(C)c3ccc(C#N)nc23)C[C@H]1C (stereo partly drawn) [Example 1206] | – | – | 2100 nM | –
CC(c1ccc(OC(F)(F)F)cc1F)N1C[C@H](C)N(c2cc(=O)n(C)c3ccc(C#N)nc23)C[C@H]1C (single isomer, unassigned) [Example 439] | – | 320 nM | 680 nM | –
C[C@@H]1CN(c2c(F)c(=O)n(C)c3ccc(C#N)nc23)[C@@H](C)CN1C(c1ccc(Cl)cc1)c1ccc(OC(F)(F)F)cc1 (stereo partly drawn) [Example 323, 8-((2S,5R)-4-((4-chlorophenyl)(4-(trifluoromethoxy)phenyl)methyl)-2,5-dimethylpiperazin-1-yl)-7-fluoro-5-methyl-6-oxo-5,6-dihydro-1,5-naphthyridine-2-carbonitrile] | 2100 nM | – | – | EC50 (Human venous whole blood; [2]): 5700 nM
CC(c1cc(OC(F)(F)F)ccc1F)N1C[C@H](C)N(c2cc(=O)n(C)c3ccc(C#N)nc23)C[C@H]1C (stereo partly drawn) [Example 1202] | 2200 nM | – | 1300 nM | –
C[C@@H]1CN(c2c(F)c(=O)n(C)c3ccc(C#N)nc23)[C@@H](C)CN1C(c1ccc(F)cc1)c1ccc(C(F)(F)F)cc1 (stereo partly drawn) [Example 326, 7-fluoro-8-((2S,5R)-4-((4-fluorophenyl)(4-(trifluoromethyl)phenyl)methyl)-2,5-dimethylpiperazin-1-yl)-5-methyl-6-oxo-5,6-dihydro-1,5-naphthyridine-2-carbonitrile] | – | 6500 nM | 20000 nM | –
C[C@@H]1CN(c2cc(=O)n(C)c3ccc(C#N)nc23)[C@@H](C)CN1C(c1ccc(F)cc1)c1nc(C2CCN(C)CC2)no1 (single isomer, unassigned) [Example 751] | – | – | – | EC50 (Human venous whole blood; [3]): 4500 nM; IC50 (human DGKζ; DGKζ liposome (LIPGLO) assay): 17000 nM
CCC(c1cc(Cl)cc2c1OCC2)N1C[C@H](C)N(c2cc(=O)n(C)c3ccc(C#N)nc23)C[C@H]1C (single isomer, unassigned) [Example 357] | – | 890 nM | 13000 nM | –
CC[C@@H]1CN(c2cc(=O)n(C)c3ccc(C#N)nc23)[C@@H](C)CN1C(c1ccc(Cl)cc1)c1ccc(F)cn1 (stereo partly drawn) [Example 1110] | – | 160 nM | 1300 nM | –
COc1ccc(C(c2ccc(F)cc2)N2C[C@H](C)N(c3c(C#N)c(=O)n(C)c4ccc(C#N)nc34)C[C@H]2C)nc1 (stereo partly drawn) [Example 838] | – | – | – | EC50 (Human venous whole blood; [4]): 17000 nM; IC50 (human DGKζ; DGKζ liposome (LIPGLO) assay): 2100 nM
CC(c1ccc(F)cc1)N1C[C@H](C)N(c2c(C#N)c(=O)n(C)c3ccc(C#N)nc23)C[C@H]1C (single isomer, unassigned) [Example 783] | – | – | – | IC50 (human DGKα; DGKα liposome (LIPGLO) assay): 1200 nM; IC50 (human DGKζ; DGKζ liposome (LIPGLO) assay): > 250000 nM
C[C@@H]1CN(c2c(C#N)c(=O)n(C)c3ccc(C#N)nc23)[C@@H](C)CN1C(c1ccc(F)cc1)c1ccns1 (single isomer, unassigned) [Example 855] | – | – | – | IC50 (human DGKα; DGKα liposome (LIPGLO) assay): 27000 nM; IC50 (human DGKζ; DGKζ liposome (LIPGLO) assay): 20000 nM
C[C@@H]1CN(c2cc(=O)n(C)c3ccc(C#N)nc23)[C@@H](C)CN1C(c1cccc(F)c1)c1ccccn1 (single isomer, unassigned) [Example 374] | 570 nM | 3800 nM | – | –
C[C@@H]1CN(c2c(C#N)c(=O)n(C)c3ccc(C#N)nc23)CCN1Cc1ccccc1OC(F)(F)F [Example 999] | – | – | – | IC50 (human DGKα; DGKα liposome (LIPGLO) assay): 270 nM; EC50 (Human venous whole blood; [4]): 17000 nM
C[C@@H]1CN(c2c(C#N)c(=O)n(C)c3ccc(C#N)nc23)[C@@H](C)CN1C(c1ccc(F)cc1)c1cn(C)cn1 (single isomer, unassigned) [Example 852] | – | – | – | IC50 (human DGKα; DGKα liposome (LIPGLO) assay): 1300 nM; IC50 (human DGKζ; DGKζ liposome (LIPGLO) assay): 5700 nM
COCc1ccc(C(C)N2C[C@H](C)N(c3cc(=O)n(C)c4ccc(C#N)nc34)C[C@H]2C)cc1 (stereo partly drawn) [Example 1266] | – | – | 1400 nM | –
Cn1c(=O)cc(N2CCN(C(c3ccc(F)cc3)c3ccc(F)cc3)C(COC(F)F)C2)c2nc(C#N)ccc21 (single isomer, unassigned) [Example 1187] | 150000 nM | 2900 nM | – | –
C[C@@H]1CN(C(c2ccc(F)cc2)c2ccc(C#N)cc2)[C@@H](CO)CN1c1cc(=O)n(C)c2ccc(C#N)nc12 (single isomer, unassigned) [Example 1177] | 10000 nM | 620 nM | – | –

More lines, main results first:

IC50 (human DGKα; liposome (LIPGLO) assay) | IC50 (human DGKζ; liposome (LIPGLO) assay) | Structure (SMILES) | EC50 (Human venous whole blood; [1]) | further results
590 nM | – | CC(c1csc(C(F)(F)F)n1)N1C[C@H](C)N(c2cc(=O)n(C)c3ccc(C#N)nc23)C[C@H]1C (single isomer, unassigned) [Example 1274] | 3300 nM | –
290000 nM | – | C[C@@H]1CN(c2cc(=O)n(C)c3ccc(C#N)nc23)[C@@H](C)CN1C(c1ccc(F)cc1)c1ccccc1P(C)(C)=O (single isomer, unassigned) [Example 1288] | – | EC50 (Human venous whole blood; [2]): 8800 nM
– | 3700 nM | C[C@@H]1CN(c2cc(=O)n(C)c3ccc(C#N)nc23)[C@@H](C)CN1C(c1ccc(F)cc1)c1ccccc1P(C)(C)=O (stereo partly drawn) [Example 1287, 8-((2S,5R)-4-((2-(dimethylphosphoryl)phenyl)(4-fluorophenyl)methyl)-2,5-dimethylpiperazin-1-yl)-5-methyl-6-oxo-5,6-dihydro-1,5-naphthyridine-2-carbonitrile] | – | EC50 (Human venous whole blood; [2]): 8400 nM
760 nM | – | CC(c1cc(C(C)(C)C)on1)N1C[C@H](C)N(c2cc(=O)n(C)c3ccc(C#N)nc23)C[C@H]1C (single isomer, unassigned) [Example 1284] | 2800 nM | –
– | 1800 nM | CC(c1ccc(OC(F)(F)F)cc1)N1C[C@H](C)N(c2cc(=O)n(C)c3ccc(C#N)nc23)C[C@H]1CN(C)C (stereo partly drawn) [Example 1413, 8-((2S,5R)-5-((dimethylamino)methyl)-2-methyl-4-(1-(4-(trifluoromethoxy)phenyl)ethyl)piperazin-1-yl)-5-methyl-6-oxo-5,6-dihydro-1,5-naphthyridine-2-carbonitrile] | – | EC50 (Human venous whole blood; [2]): 1400 nM
48000 nM | – | Cc1oc(-c2cccc(F)c2)nc1CN1C[C@H](C)N(c2cc(=O)n(C)c3ccc(C#N)nc23)C[C@H]1C [Example 1429] | 20000 nM | –
21000 nM | – | Cc1oc(-c2cccc(F)c2)nc1CN1C[C@H](C)N(c2cc(=O)n(C)c3ccc(C#N)nc23)C[C@H]1C [Example 1430] | 7000 nM | –
– | 70 nM | COC[C@@H]1CN(c2cc(=O)n(C)c3ccc(C#N)nc23)[C@@H](C)CN1C(c1ccc(F)cc1)c1nc(C2CC2)cs1 (single isomer, unassigned) [Example 1395] | 190 nM | –
– | 160 nM | CC(c1ccc(Cl)cc1F)N1C[C@H](C)N(c2cc(=O)n(C)c3ccc(C#N)nc23)C[C@H]1C (stereo partly drawn) [Example 1230] | – | EC50 (Human venous whole blood; [2]): 100 nM
– | 220000 nM | CC(c1ccc(P(C)(C)=O)cc1)N1C[C@H](C)N(c2c(C#N)c(=O)n(C)c3ccc(C#N)nc23)C[C@H]1C (single isomer, unassigned) [Example 1294] | – | EC50 (Human venous whole blood; [2]): 20000 nM
11 nM | 11 nM | CC[C@H]1CN(C(c2ccc(F)cc2)c2csc(C(F)(F)F)n2)[C@H](CC)CN1c1cc(=O)n(C)c2ccc(C#N)nc12 (single isomer, unassigned) [Example 1361] | – | –
460 nM | 510 nM | CC[C@@H]1CN(c2cc(=O)n(C)c3ccc(C#N)nc23)[C@@H](C)CN1C(C)c1ccc(Cl)cc1F (single isomer, unassigned) [Example 1353] | – | –
– | 170 nM | CC[C@@H]1CN(c2cc(=O)n(C)c3ccc(C#N)nc23)[C@@H](C)CN1Cc1ccc(OC(F)(F)F)cc1F [Example 1347] | – | EC50 (Human venous whole blood; [2]): 730 nM
110000 nM | 17000 nM | COc1ccc(C(C)N2C[C@H](C)N(c3cc(=O)n(C)c4ccc(C#N)nc34)C[C@H]2C)cc1OCCN1CCOCC1 (stereo partly drawn) [Example 1304] | – | –

Source: patent publication US10669272B2, “Substituted naphthyridinone compounds useful as T cell activators” (BRISTOL-MYERS SQUIBB COMPANY, priority 2018, dated 2020)
